# Experimental data: PMC9512014 (Journal of Medicinal Chemistry, 2022)
# pIC50: −log10 of the molar value.
# Tests used:
# HDAC9 = HDAC9 (Homo sapiens, UniProt Q9UKV0); test: Multiplexed selectivity western blot in Jurkat cells, HDAC9; format: cell-based; conditions: Jurkat E6-1, 24 h, concentration response
# HDAC4 [1] = target: T1, HDAC4 (Homo sapiens, UniProt P56524); test: HDAC4 degradation by western blot in Jurkat E6-1 cells; format: cell-based; conditions: Jurkat E6-1, 24 h; for hook effect: immunoblot, at 10 μM
# Target sequence in this assay (P56524 whole entry): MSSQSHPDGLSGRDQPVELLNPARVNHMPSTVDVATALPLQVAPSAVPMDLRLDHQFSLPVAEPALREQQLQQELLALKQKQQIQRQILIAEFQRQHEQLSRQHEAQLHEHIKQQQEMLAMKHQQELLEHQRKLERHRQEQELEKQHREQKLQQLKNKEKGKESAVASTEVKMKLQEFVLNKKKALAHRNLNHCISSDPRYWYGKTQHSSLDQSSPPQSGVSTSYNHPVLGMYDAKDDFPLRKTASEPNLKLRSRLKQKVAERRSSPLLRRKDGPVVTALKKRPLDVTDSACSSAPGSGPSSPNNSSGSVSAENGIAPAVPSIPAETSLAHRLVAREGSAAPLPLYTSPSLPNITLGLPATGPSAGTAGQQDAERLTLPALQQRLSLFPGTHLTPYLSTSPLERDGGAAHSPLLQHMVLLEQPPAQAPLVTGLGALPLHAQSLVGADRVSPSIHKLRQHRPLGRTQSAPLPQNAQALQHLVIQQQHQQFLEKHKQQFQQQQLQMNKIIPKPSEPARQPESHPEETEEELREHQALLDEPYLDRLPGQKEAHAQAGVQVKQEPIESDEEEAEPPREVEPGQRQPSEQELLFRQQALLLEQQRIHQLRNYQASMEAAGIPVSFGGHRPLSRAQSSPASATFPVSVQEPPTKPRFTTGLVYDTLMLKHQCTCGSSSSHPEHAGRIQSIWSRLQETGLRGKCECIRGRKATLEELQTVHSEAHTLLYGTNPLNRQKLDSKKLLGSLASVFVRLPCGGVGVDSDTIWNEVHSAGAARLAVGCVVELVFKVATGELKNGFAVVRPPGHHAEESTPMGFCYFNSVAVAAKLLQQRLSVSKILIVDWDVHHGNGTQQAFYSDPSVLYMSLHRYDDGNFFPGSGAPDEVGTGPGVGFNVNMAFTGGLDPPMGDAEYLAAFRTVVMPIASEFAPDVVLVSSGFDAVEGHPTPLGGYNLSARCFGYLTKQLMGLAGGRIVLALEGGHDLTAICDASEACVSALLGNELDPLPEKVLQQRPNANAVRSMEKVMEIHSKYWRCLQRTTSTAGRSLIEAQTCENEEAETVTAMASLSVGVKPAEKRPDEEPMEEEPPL
# HDAC1 = HDAC1 (Homo sapiens, UniProt Q13547); test: Multiplexed selectivity western blot in Jurkat cells, HDAC1; format: cell-based; conditions: Jurkat E6-1, 24 h, concentration response
# HDAC3 = HDAC3 (Homo sapiens, UniProt O15379); test: Multiplexed selectivity western blot in Jurkat cells, HDAC3; format: cell-based; conditions: Jurkat E6-1, 24 h, concentration response up to 10 μM
# HDAC5 = HDAC5 (Homo sapiens, UniProt Q9UQL6); test: Multiplexed selectivity western blot in Jurkat cells, HDAC5; format: cell-based; conditions: Jurkat E6-1, 24 h, concentration response
# class I HDAC = conditions: read-out: HDAC cellular IC50 class I; Jurkat E6.1, treated for 24 h; substrate Boc-Lys(Ac)AMC
# HDAC4 [2] = target: T1, HDAC4; format: cell-based; conditions: Jurkat E6-1, 6 h; compound 7 at 1 μM, compound 11 at 100 nM
# Target sequence in this assay (P56524 whole entry): as above
# HDAC7 = target: T2, HDAC7 (Homo sapiens, UniProt Q8WUI4); test: Multiplexed selectivity western blot in Jurkat cells, HDAC7; format: cell-based; conditions: Jurkat E6-1, 24 h, concentration response
# T2 sequence (Q8WUI4 1-952): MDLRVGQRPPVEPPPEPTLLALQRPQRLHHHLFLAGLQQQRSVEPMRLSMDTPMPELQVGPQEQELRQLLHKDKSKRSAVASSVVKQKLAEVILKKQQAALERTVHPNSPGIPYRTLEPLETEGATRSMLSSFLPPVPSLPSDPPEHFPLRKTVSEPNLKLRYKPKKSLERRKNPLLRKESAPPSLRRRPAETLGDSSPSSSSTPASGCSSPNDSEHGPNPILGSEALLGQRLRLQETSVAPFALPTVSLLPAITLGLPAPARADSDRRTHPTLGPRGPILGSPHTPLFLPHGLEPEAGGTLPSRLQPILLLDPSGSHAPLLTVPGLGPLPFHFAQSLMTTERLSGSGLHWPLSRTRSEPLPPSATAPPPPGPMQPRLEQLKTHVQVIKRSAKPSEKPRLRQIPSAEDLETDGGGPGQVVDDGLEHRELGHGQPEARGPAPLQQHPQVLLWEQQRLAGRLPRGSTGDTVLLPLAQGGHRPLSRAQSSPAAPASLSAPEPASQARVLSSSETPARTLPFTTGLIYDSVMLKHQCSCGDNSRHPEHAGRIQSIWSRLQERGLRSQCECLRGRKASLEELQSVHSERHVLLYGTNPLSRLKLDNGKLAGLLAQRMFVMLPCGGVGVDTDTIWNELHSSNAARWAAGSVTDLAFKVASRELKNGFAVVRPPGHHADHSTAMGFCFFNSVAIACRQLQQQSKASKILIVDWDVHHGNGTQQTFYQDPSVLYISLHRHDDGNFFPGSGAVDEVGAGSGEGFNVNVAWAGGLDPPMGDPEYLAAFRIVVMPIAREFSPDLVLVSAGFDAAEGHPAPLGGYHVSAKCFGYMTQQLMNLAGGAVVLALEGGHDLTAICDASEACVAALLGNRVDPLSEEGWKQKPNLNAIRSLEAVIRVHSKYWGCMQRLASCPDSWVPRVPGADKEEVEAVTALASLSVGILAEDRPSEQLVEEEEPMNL
# HDAC4 [3] = target: HDAC4 (Mus musculus, UniProt Q6NZM9); conditions: R6/2 mice, chronic administration; cited from earlier work
# aggregate load = conditions: R6/2 mice, chronic administration, cortex and brain stem; cited from earlier work
# HDAC4 [4] = target: T1, HDAC4; test: Recombinant HDAC4 enzymatic inhibition assay; conditions: HDAC enzymatic activity assays
# Target sequence in this assay (P56524 655-1084 limits assumed): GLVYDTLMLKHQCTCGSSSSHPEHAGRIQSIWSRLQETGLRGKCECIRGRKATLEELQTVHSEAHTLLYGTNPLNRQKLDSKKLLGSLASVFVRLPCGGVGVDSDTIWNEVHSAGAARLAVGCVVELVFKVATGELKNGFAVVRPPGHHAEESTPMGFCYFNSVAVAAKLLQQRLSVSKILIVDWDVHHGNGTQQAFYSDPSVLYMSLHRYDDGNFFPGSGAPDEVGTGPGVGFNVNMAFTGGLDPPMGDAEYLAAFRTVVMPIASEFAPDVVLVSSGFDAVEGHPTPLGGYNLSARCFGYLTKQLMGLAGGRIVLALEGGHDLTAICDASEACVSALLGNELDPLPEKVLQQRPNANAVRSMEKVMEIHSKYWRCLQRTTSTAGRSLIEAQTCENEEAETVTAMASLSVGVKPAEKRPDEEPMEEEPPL
# Sequence of HDAC5 (Q9UQL6 whole entry): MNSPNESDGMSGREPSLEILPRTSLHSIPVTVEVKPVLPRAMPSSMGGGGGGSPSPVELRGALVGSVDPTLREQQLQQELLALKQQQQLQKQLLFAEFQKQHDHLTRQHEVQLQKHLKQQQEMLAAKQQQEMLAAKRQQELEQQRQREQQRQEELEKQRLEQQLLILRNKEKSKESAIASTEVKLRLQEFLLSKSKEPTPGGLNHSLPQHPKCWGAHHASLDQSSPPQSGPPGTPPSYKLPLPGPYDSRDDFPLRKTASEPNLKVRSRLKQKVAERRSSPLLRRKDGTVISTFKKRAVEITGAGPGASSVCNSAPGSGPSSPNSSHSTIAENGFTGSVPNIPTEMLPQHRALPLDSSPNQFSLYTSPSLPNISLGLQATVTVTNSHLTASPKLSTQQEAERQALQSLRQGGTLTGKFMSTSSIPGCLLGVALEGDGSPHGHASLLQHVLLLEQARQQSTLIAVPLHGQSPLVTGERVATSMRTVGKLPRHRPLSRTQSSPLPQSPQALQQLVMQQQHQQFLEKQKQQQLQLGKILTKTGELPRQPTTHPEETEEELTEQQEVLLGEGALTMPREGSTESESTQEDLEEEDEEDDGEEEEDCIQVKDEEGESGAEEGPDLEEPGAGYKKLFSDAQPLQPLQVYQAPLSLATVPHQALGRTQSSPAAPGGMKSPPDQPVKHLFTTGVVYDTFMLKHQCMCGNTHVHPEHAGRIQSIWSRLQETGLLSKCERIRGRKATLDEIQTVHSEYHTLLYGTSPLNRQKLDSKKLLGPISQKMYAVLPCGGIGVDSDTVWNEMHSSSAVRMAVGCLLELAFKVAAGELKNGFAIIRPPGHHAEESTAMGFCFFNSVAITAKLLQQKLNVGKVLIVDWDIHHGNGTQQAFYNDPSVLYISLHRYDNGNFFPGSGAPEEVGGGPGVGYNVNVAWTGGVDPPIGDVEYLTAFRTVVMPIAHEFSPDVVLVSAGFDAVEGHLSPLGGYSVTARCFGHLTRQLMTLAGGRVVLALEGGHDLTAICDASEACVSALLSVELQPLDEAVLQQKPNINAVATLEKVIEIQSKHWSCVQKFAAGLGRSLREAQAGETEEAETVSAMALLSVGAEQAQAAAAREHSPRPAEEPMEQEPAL
# Sequence of HDAC1 (Q13547 whole entry): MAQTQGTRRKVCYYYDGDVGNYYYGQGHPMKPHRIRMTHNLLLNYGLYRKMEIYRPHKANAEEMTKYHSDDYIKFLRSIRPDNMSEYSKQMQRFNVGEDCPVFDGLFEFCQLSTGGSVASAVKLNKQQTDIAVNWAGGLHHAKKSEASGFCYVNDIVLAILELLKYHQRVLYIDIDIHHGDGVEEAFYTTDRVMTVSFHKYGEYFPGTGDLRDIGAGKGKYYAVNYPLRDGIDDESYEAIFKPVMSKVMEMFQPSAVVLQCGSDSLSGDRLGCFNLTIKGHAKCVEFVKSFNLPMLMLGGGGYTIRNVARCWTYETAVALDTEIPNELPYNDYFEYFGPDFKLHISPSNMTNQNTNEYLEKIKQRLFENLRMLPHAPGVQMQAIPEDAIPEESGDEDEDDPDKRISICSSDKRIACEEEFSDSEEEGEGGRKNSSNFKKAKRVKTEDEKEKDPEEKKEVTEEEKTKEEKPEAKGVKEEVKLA
# Sequence of HDAC3 (O15379 whole entry): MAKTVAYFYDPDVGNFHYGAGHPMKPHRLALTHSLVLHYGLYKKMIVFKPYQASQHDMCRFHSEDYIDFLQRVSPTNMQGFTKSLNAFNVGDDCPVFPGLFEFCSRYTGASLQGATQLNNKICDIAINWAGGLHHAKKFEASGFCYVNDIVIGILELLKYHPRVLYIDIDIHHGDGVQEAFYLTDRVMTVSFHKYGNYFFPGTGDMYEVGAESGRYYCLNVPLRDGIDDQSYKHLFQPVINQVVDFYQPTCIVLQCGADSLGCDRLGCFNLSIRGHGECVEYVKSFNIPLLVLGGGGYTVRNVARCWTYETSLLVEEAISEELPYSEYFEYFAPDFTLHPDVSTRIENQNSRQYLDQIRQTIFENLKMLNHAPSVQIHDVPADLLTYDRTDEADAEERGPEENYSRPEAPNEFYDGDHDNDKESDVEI
# Sequence of HDAC9 (Q9UKV0 whole entry): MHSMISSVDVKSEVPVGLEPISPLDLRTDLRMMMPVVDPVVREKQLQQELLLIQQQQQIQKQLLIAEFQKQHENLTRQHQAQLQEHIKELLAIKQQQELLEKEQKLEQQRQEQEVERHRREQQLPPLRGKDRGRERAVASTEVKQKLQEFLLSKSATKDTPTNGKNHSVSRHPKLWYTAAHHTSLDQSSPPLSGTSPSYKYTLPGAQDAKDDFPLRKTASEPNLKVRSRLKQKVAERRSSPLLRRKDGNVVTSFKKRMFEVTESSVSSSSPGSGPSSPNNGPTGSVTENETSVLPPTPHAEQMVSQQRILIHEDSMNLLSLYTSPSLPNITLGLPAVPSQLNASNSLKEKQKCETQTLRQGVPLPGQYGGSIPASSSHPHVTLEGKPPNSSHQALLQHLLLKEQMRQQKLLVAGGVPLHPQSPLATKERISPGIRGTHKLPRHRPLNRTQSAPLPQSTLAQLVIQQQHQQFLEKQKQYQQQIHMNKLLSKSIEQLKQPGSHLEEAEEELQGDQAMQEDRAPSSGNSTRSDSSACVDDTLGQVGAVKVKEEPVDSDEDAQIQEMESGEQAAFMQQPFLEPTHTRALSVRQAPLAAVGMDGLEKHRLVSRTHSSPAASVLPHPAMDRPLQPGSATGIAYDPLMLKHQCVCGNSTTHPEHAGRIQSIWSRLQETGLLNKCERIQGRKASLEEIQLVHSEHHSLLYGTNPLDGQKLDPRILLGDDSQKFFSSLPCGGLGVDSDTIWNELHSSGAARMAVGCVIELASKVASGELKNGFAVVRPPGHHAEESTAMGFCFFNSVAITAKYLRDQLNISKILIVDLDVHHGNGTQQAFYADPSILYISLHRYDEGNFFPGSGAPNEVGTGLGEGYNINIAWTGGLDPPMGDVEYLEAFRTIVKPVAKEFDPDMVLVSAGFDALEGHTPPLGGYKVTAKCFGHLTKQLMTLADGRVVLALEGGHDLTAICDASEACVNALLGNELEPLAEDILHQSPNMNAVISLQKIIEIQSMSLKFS
hook effect (HDAC4 [1]),pIC50 (class I HDAC),HDAC4 degradation in the presence of 1 μM proteasome inhibitors MG132 or carfilzomib (HDAC4 [2]),HDAC4 degradation at 10 μM by immunoblot (HDAC4 [1]),"higher inhibition of HDAC5, HDAC7, and HDAC9 compared to HDAC4 (HDAC4 [4])",Compound,degradation of HDAC9 by western blot (HDAC9),degradation of HDAC1 by western blot (HDAC1),degradation of HDAC3 by western blot (HDAC3),degradation of HDAC5 by western blot (HDAC5),degradation of HDAC7 by western blot (HDAC7),level of HDAC4 protein in the cortex and brain stem (HDAC4 [3]),aggregate load in the same brain regions (aggregate load)
hook effect was not observed,< 5.30,same effect was observed,,,"CCCN(CCCCOCCOCCOCCOCCOCC(=O)N[C@H](C(=O)N1C[C@H](O)C[C@H]1C(=O)NCc1ccc(-c2scnc2C)cc1)C(C)(C)C)C[C@@H](C)NC(=O)c1ccc(-c2noc(C(F)(F)F)n2)cc1 [Compound 11, (2S,4R)-1-((3R,26S)-26-(tert-Butyl)-3-methyl-1,24-dioxo-5-propyl-1-(4-(5-trifluoromethyl-1,2,4-oxadiazol-3-yl)phenyl)-10,13,16,19,22-pentaoxa-2,5,25-triazaheptacosan-27-oyl)-4-hydroxy-N-(4-(4-methylthiazol-5-yl)benzyl)pyrrolidine-2-carboxamide]",neither compound demonstrated degradation,neither compound demonstrated degradation,showed HDAC3 degradation at the highest dose of 10 μM,neither compound demonstrated degradation,neither compound demonstrated degradation,,
,< 5.30,,did not induce HDAC4 degradation,,"CCCN(CCCCOCCOCCOCCOCCOCC(=O)N[C@@H](C(=O)N1C[C@@H](O)C[C@@H]1C(=O)NCc1ccc(-c2scnc2C)cc1)C(C)(C)C)C[C@@H](C)NC(=O)c1ccc(-c2noc(C(F)(F)F)n2)cc1 [Compound 12, (2R,4S)-1-((3R,26R)-26-(tert-Butyl)-3-methyl-1,24-dioxo-5-propyl-1-(4-(5-trifluoromethyl-1,2,4-oxadiazol-3-yl)phenyl)-10,13,16,19,22-pentaoxa-2,5,25-triazaheptacosan-27-oyl)-4-hydroxy-N-(4-(4-methylthiazol-5-yl)benzyl)pyrrolidine-2-carboxamide]",,,,,,,

# Second part, the molecule before the results:
Compound,hook effect (HDAC4 [1]),pIC50 (class I HDAC),HDAC4 degradation in the presence of 1 μM proteasome inhibitors MG132 or carfilzomib (HDAC4 [2]),HDAC4 degradation at 10 μM by immunoblot (HDAC4 [1]),"higher inhibition of HDAC5, HDAC7, and HDAC9 compared to HDAC4 (HDAC4 [4])",degradation of HDAC9 by western blot (HDAC9),degradation of HDAC1 by western blot (HDAC1),degradation of HDAC3 by western blot (HDAC3),degradation of HDAC5 by western blot (HDAC5),degradation of HDAC7 by western blot (HDAC7),level of HDAC4 protein in the cortex and brain stem (HDAC4 [3]),aggregate load in the same brain regions (aggregate load)
"O=C(CCCCCCC(=O)Nc1ccccc1)NO [SAHA, suberoylanilide hydroxamic acid]",,,,,,,,,,,reduction in the level of HDAC4 protein,decrease in aggregate load
"Cc1ncsc1-c1ccc(CNC(=O)[C@@H]2C[C@H](O)CN2C(=O)[C@@H](NC(=O)COCCOCCOCCOCCOCC(F)(F)c2cnc(-c3ccc(C(C(=O)NO)c4ccccc4F)cc3)nc2)C(C)(C)C)cc1 (stereo partly drawn) [Compound 8, (2S,4S)-1-((2S)-2-(tert-Butyl)-20,20-difluoro-20-(2-(4-(1-(2-fluorophenyl)-2-(hydroxyamino)-2-oxoethyl)phenyl)pyrimidin-5-yl)-4-oxo-6,9,12,15,18-pentaoxa-3-azaicosanoyl)-4-hydroxy-N-(4-(4-methylthiazol-5-yl)benzyl)pyrrolidine-2-carboxamide]",,< 5.30,,did not induce HDAC4 degradation,,,,,,,,
"Cc1ncsc1-c1ccc(CNC(=O)[C@@H]2C[C@@H](O)CN2C(=O)[C@@H](NC(=O)COCCOCCOCCOCCOCC(F)(F)c2cnc(-c3ccc(C(C(=O)NO)c4ccccc4F)cc3)nc2)C(C)(C)C)cc1 (stereo partly drawn) [Compound 7, (2S,4R)-1-((2S)-2-(tert-Butyl)-20,20-difluoro-20-(2-(4-(1-(2-fluorophenyl)-2-(hydroxyamino)-2-oxoethyl)phenyl)pyrimidin-5-yl)-4-oxo-6,9,12,15,18-pentaoxa-3-azaicosan-1-oyl)-4-hydroxy-N-(4-(4-methylthiazol-5-yl)benzyl)pyrrolidine-2-carboxamide]",hook effect was observed,< 5.30,HDAC4 degradation was prevented,,3- to 4 fold,neither compound demonstrated degradation,neither compound demonstrated degradation,No concentration-dependent reduction in immunoreactivity,neither compound demonstrated degradation,neither compound demonstrated degradation,,
